From ChEMBL document CHEMBL1158732, “Intercedensides D-I, cytotoxic triterpene glycosides from the sea cucumber Mensamaria intercedens Lampert” (2005)

Columns and labels:
SK-MEL-2 = experiment: Cytotoxicity against human SK-MEL-2 cells by SRB method; assay type: functional; details: read-out: ED50 (the source's name)
HCT-8 = experiment: Cytotoxicity against human HCT8 cells by SRB method; assay type: functional; details: read-out: ED50 (the source's name)
1A9 = experiment: Cytotoxicity against human 1A9 cells by SRB method; assay type: functional; details: read-out: ED50 (the source's name)
A549 = experiment: Cytotoxicity against human A549 cells by SRB method; assay type: functional; details: read-out: ED50 (the source's name)
[1] = Cytotoxicity against human KBVIN cells by SRB method; assay type: functional; details: read-out: ED50 (the source's name)
PC-3 = experiment: Cytotoxicity against human PC3 cells by SRB method; assay type: functional; details: read-out: ED50 (the source's name)
[2] = Cytotoxicity against human U87MG cells by SRB method; assay type: functional, U-87MG ATCC; details: U-87 MG, read-out: ED50 (the source's name)
CAKI-1 = experiment: Cytotoxicity against human Caki1 cells by SRB method; assay type: functional; details: read-out: ED50 (the source's name)
MCF7 = experiment: Cytotoxicity against human MCF7 cells by SRB method; assay type: functional; details: read-out: ED50 (the source's name)
KB = experiment: Cytotoxicity against human KB cells by SRB method; assay type: functional; details: read-out: ED50 (the source's name)

Structure (SMILES)	EC50 (SK-MEL-2)	EC50 (HCT-8)	EC50 (1A9)	EC50 (A549)	EC50 [1]	EC50 (PC-3)	EC50 [2]	EC50 (CAKI-1)	EC50 (MCF7)	EC50 (KB)
CO[C@@H]1[C@@H](O)[C@H](O[C@@H]2[C@@H](O)[C@H](O[C@@H]3CO[C@@H](O[C@H]4[C@H](O[C@H]5CC[C@]6(C)[C@@H]7CC[C@]89C(=O)O[C@@](C)(/C=C\C=C(C)C)C8[C@@H](OC(C)=O)C[C@@]9(C)C7=CC[C@H]6C5(C)C)OC[C@@H](OS(=O)(=O)[O-])[C@@H]4O)[C@H](O)[C@H]3O)OC[C@H]2O)O[C@H](CO)[C@H]1O.[Na+] (stereo not given in full) [LNTERCEDENSIDE G]	2.4 µg/mL	1.8 µg/mL	1.9 µg/mL	1.6 µg/mL	3.9 µg/mL	2 µg/mL	3.3 µg/mL	3.8 µg/mL	2 µg/mL	3.3 µg/mL
CO[C@@H]1[C@@H](O)[C@H](O[C@@H]2[C@@H](O)[C@H](O[C@@H]3CO[C@@H](O[C@H]4[C@H](O[C@H]5CC[C@]6(C)[C@@H]7CC[C@]89C(=O)O[C@@](C)(/C=C\C=C(C)C)[C@@]8(O)[C@@H](OC(C)=O)C[C@@]9(C)C7=CC[C@H]6C5(C)C)OC[C@@H](OS(=O)(=O)[O-])[C@@H]4O)[C@H](O)[C@H]3O)OC[C@H]2O)O[C@H](CO)[C@H]1O.[Na+] [LNTERCEDENSIDE E]	1.6 µg/mL	1.1 µg/mL	1.7 µg/mL	1.4 µg/mL	2 µg/mL	1.7 µg/mL	2.1 µg/mL	1.6 µg/mL	1.4 µg/mL	1.9 µg/mL
CO[C@@H]1[C@@H](O)[C@H](O[C@@H]2[C@@H](O)[C@H](O[C@H]3[C@H](O)[C@@H](O)[C@H](O[C@H]4[C@H](O[C@H]5CC[C@]6(C)[C@@H]7CC[C@]89C(=O)O[C@@](C)(/C=C\C=C(C)C)[C@@]8(O)[C@@H](OC(C)=O)C[C@@]9(C)C7=CC[C@H]6C5(C)C)OC[C@@H](OS(=O)(=O)[O-])[C@@H]4O)O[C@@H]3CO)OC[C@H]2O)O[C@H](CO)[C@H]1O.[Na+] [LNTERCEDENSIDE D]	4.2 µg/mL	2.9 µg/mL	2.4 µg/mL	1.8 µg/mL	4.3 µg/mL	3.3 µg/mL	4.1 µg/mL	> 5 µg/mL	2.4 µg/mL	3.7 µg/mL
CO[C@@H]1[C@@H](O)[C@H](O[C@@H]2[C@@H](O)[C@H](O[C@H]3[C@H](O)[C@@H](O)[C@H](O[C@H]4[C@H](O[C@H]5CC[C@]6(C)[C@@H]7CC[C@]89C(=O)O[C@@](C)(/C=C\C=C(C)C)[C@@]8(O)[C@@H](OC(C)=O)C[C@@]9(C)C7=CC[C@H]6C5(C)C)OC[C@@H](OS(=O)(=O)[O-])[C@@H]4O)O[C@@H]3C)OC[C@H]2O)O[C@H](CO)[C@H]1O.[Na+] [LNTERCEDENSIDE H]	2.2 µg/mL	1.9 µg/mL	0.96 µg/mL	1.4 µg/mL	3.7 µg/mL	2.2 µg/mL	3.2 µg/mL	1 µg/mL	1.8 µg/mL	3 µg/mL
CO[C@@H]1[C@@H](O)[C@H](O[C@@H]2[C@@H](O)[C@H](O[C@H]3[C@H](O)[C@@H](O)[C@H](O[C@H]4[C@H](O[C@H]5CC[C@]6(C)[C@@H]7CC[C@]89C(=O)O[C@@](C)(CCC=C(C)C)[C@@]8(O)[C@@H](OC(C)=O)C[C@@]9(C)C7=CC[C@H]6C5(C)C)OC[C@@H](OS(=O)(=O)[O-])[C@@H]4O)O[C@@H]3CO)OC[C@H]2O)O[C@H](CO)[C@H]1O.[Na+] [INTERCEDENSIDE F]	2.1 µg/mL	1.9 µg/mL	1.7 µg/mL	1.7 µg/mL	3.2 µg/mL	2.3 µg/mL	3.3 µg/mL	1.7 µg/mL	2.1 µg/mL	3.2 µg/mL
